For 6 molecules, inhibition results are on record in PMC9516332 (Frontiers in Oncology, 2022).

Common to all, as to assay: Kinase panel profiling at 1 µmol/L (MSA or IMAP), percentage inhibition
Holding throughout (assay type): biochemical

Test [1] addresses panel of 255 wild-type kinases (Homo sapiens, UniProt P54646). The following applies: read-out: %-inhibition AMPKα2/β1/γ1.
For test [2], the target named is panel of 255 wild-type kinases (Homo sapiens, UniProt P28482). As to conditions: read-out: %-inhibition at 1 µmol/L, Erk2.
Test [3] concerns the target panel of 255 wild-type kinases (Homo sapiens, UniProt P45983). The following applies: read-out: %-inhibition at 1 µmol/L, JNK1.
The target of test [4] is panel of 255 wild-type kinases (Homo sapiens, UniProt P07333). As to conditions: read-out: %-inhibition at 1 µmol/L, FMS.
Test [5] concerns the target panel of 255 wild-type kinases (Homo sapiens, UniProt P00533). The following applies: read-out: %-inhibition at 1 µmol/L, EGFR.
Test [6] has as its target panel of 255 wild-type kinases (Homo sapiens, UniProt P16234). The following applies: read-out: %-inhibition at 1 µmol/L, PDGFRα.
Test [7] has as its target panel of 255 wild-type kinases (Homo sapiens, UniProt P53355). The following applies: read-out: %-inhibition at 1 µmol/L, DAPK1.
In test [8] the target is T1, panel of 255 wild-type kinases (Homo sapiens, UniProt O14920).
T1 sequence (O14920 1-756): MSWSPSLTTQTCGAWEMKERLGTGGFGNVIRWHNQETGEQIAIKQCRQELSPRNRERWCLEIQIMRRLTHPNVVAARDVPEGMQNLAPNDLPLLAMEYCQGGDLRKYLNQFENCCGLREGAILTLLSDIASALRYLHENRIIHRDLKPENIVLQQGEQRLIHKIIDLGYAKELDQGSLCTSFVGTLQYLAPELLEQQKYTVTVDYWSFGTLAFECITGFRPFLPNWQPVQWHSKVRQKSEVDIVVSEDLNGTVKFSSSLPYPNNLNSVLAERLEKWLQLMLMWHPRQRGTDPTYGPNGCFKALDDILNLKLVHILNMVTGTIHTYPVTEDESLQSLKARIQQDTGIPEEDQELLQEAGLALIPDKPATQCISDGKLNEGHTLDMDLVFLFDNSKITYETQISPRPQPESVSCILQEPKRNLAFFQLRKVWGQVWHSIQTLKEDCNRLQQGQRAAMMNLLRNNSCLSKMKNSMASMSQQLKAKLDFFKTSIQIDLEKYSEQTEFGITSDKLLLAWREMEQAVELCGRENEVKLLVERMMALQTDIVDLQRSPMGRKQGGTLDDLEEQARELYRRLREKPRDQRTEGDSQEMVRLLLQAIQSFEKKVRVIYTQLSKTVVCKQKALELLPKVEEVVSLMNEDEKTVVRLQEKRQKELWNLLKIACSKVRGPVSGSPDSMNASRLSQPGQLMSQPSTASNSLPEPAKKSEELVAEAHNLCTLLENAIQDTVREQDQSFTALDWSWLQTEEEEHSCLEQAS
The following applies: read-out: %-inhibition at 1 µmol/L, IKKβ.

Test [9] deals with panel of 255 wild-type kinases (Homo sapiens, UniProt P51451). As to conditions: read-out: %-inhibition BLK.
Test [10] concerns the target panel of 255 wild-type kinases (Homo sapiens, UniProt P54756). The following applies: read-out: %-inhibition at 1 µmol/L, EPHA5.
Test [11] deals with panel of 255 wild-type kinases (Homo sapiens, UniProt Q9H422). As to conditions: read-out: %-inhibition at 1 µmol/L, HIPK3.
In test [12] the target is panel of 255 wild-type kinases (Homo sapiens, UniProt P04629). The following applies: read-out: %-inhibition at 1 µmol/L, TRKA.
Test [13] deals with panel of 255 wild-type kinases (Homo sapiens, UniProt Q06187). As to conditions: read-out: %-inhibition BTK.
Test [14] has as its target T2, panel of 255 wild-type kinases (Homo sapiens, UniProt P51813).
T2 sequence (P51813 1-675): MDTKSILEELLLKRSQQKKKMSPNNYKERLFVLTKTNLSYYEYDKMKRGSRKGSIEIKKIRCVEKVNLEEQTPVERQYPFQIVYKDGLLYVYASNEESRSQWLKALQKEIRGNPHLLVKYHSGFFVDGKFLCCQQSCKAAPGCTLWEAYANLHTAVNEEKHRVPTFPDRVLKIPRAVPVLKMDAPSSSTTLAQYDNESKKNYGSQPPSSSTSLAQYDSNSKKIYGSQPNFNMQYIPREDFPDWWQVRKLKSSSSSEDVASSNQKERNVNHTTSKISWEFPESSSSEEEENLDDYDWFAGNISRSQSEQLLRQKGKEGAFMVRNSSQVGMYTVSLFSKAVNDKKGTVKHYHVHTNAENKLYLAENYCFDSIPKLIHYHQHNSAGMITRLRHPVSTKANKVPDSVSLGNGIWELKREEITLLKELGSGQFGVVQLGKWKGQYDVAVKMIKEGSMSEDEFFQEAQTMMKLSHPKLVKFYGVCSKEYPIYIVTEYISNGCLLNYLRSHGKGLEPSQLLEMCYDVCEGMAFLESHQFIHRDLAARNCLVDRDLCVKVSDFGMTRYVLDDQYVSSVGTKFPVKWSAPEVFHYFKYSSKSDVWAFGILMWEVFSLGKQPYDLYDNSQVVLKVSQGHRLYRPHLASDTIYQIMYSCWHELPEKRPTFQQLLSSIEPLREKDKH
The following applies: read-out: %-inhibition BMX.

The target in test [15] is panel of 255 wild-type kinases (Homo sapiens, UniProt P23458). The following applies: read-out: %-inhibition at 1 µmol/L, JAK1.
Where [16] appears, read: AMPKα2/β1/γ1 kinase assay, 1 µmol/L single concentration.
The mark [17] stands for this setting: kinase Erk2, 1 µmol/L single concentration.
[18] abbreviates: kinase JNK1, 1 µmol/L single concentration.
[19] abbreviates: kinase FMS, 1 µmol/L single concentration.
Setting [20] is: kinase EGFR, 1 µmol/L single concentration.
Where [21] appears, read: kinase PDGFRα, 1 µmol/L single concentration.
The mark [22] stands for this setting: kinase DAPK1, 1 µmol/L single concentration.
[23] abbreviates: kinase IKKβ, 1 µmol/L single concentration.
Where [24] appears, read: BLK kinase assay, 1 µmol/L single concentration.
[25] abbreviates: kinase EPHA5, 1 µmol/L single concentration.
Setting [26] is: kinase HIPK3, 1 µmol/L single concentration.
[27] abbreviates: kinase TRKA, 1 µmol/L single concentration.
Setting [28] is: BTK kinase assay, 1 µmol/L single concentration.
The mark [29] stands for this setting: BMX kinase assay, 1 µmol/L single concentration.
The mark [30] stands for this setting: kinase JAK1, 1 µmol/L single concentration.

Where two headings read alike, the source gives them in different places.

Turning to `Cn1cnc2c(F)c(Nc3ccc(Br)cc3F)c(C(=O)NOCCO)cc21` [binimetinib], the inhibition at 1 µM in test [1] (setting [16]) is -3.67%; in [2] (setting [17]), 0.0301%; in test [3] (setting [18]) it was -2.59%; in test [4] (setting [19]), 7%; in test [5] (setting [20]), 9%; in [6] (setting [21]), 2%. In addition, the inhibition at 1 µM in test [7] (setting [22]) was 1.69%; in test [8] (setting [23]), -4%; in test [9] (setting [24]) it was 10%; in test [10] (setting [25]), -2.36%; in test [11] (setting [26]), 0.0241%; in test [12] (setting [27]), -5%. Also, the inhibition at 1 µM was -3.75% in test [13] (setting [28]), 4% in test [14] (setting [29]) and 5% in [15] (setting [30]).
As for `CNC(=O)c1ccc(-c2cnc3ncc(Cc4ccc5ncccc5c4)n3n2)cc1F` [capmatinib], the inhibition at 1 µM in test [1] is -1.21%; in test [2], 1.14%; in test [3], -5.59%; in test [4], 13%; in [5], 17%; in [6], 18%. For the same molecule, the inhibition at 1 µM is -2.82% in test [7]; -0.588% in [8]; -4% in test [9]; -13% in test [10]; -3% in [11]; 39% in test [12]. The values for the inhibition at 1 µM in test [13], in test [14] and in [15] were 8%, 4.33% and 2.61%, respectively.
As to `COc1cc2ncnc(Nc3ccc(F)c(Cl)c3)c2cc1NC(=O)/C=C/CN1CCCCC1` [dacomitinib], the inhibition at 1 µM was -3% in test [1] (setting [16]); -1.48% in [2] (setting [17]); 1.07% in test [3] (setting [18]); 8.55% in test [4] (setting [19]); 103% in [5] (setting [20]); 69% in [6] (setting [21]). Also, the inhibition at 1 µM in test [7] (setting [22]) was -7%; in [8] (setting [23]), 6%; in [9] (setting [24]), 77%; in [10] (setting [25]), 34%; in [11] (setting [26]) it was 3.75%; in [12] (setting [27]), 6%. The results for the inhibition at 1 µM in [13] (setting [28]), in test [14] (setting [29]) and in test [15] (setting [30]) were 43%, 12% and 0.444%, respectively.
As for `C[C@H](Nc1ncnc2nc[nH]c12)c1cc2cccc(Cl)c2c(=O)n1-c1ccccc1` [duvelisib], the inhibition at 1 µM in [1] (setting [16]) was -0.155%; in [2] (setting [17]), 0.0602%; in test [3] (setting [18]) it was 0.533%; in test [4] (setting [19]), 2.22%; in [5] (setting [20]), 6%; in [6] (setting [21]), 2%. For the same molecule, the inhibition at 1 µM in test [7] (setting [22]) is -3.23%; in [8] (setting [23]) it was 0.466%; in test [9] (setting [24]), -12%; in test [10] (setting [25]) it was 0.787%; in test [11] (setting [26]), 3.5%; in test [12] (setting [27]), 9%. Besides, the inhibition at 1 µM was 1.85% in test [13] (setting [28]), 1.46% in [14] (setting [29]) and 0.053% in test [15] (setting [30]).
With `COC(=O)N[C@@H](C)CNc1nccc(-c2cn(C(C)C)nc2-c2cc(Cl)cc(NS(C)(=O)=O)c2F)n1` [encorafenib], the inhibition at 1 µM in test [1] (setting [16]) was found to be 0.723%; in test [2] (setting [17]), 2.55%; in test [3] (setting [18]), 6%; in test [4] (setting [19]), 8%; in test [5] (setting [20]) it was 9%; in test [6] (setting [21]), 4%. Also, the inhibition at 1 µM is -1% in [7] (setting [22]); 0.644% in test [8] (setting [23]); 10% in [9] (setting [24]); -2.32% in [10] (setting [25]); 5.63% in [11] (setting [26]); -2.7% in [12] (setting [27]). Moreover, the inhibition at 1 µM was -1.36% in test [13] (setting [28]), 8% in test [14] (setting [29]) and 3.6% in [15] (setting [30]).
Consider `CCc1nc(C(N)=O)c(Nc2ccc(N3CCC(N4CCN(C)CC4)CC3)c(OC)c2)nc1NC1CCOCC1` [gilteritinib], for which the inhibition at 1 µM in [1] (setting [16]) is 21%; in [2] (setting [17]) it was -1.15%; in [3] (setting [18]), 29%; in [4] (setting [19]) it was 104%; in test [5] (setting [20]) it was 85%; in test [6] (setting [21]) it was 95%. Also, the inhibition at 1 µM amounted to 71% in [7] (setting [22]); 5.66% in [8] (setting [23]); 94% in [9] (setting [24]); 52% in [10] (setting [25]); 66% in test [11] (setting [26]); 100% in test [12] (setting [27]). Moreover, the inhibition at 1 µM in test [13] (setting [28]) came to 81%; in test [14] (setting [29]), 60%; in test [15] (setting [30]) it was 24%.
